A value given as a limit tells only on which side of the number the result lay.

Data set [1] addresses T1, human collagenase-3 (Coll3) (Homo sapiens, UniProt P45452).
T1 construct: the catalytic domain was liberated by treatment with 2 mM APMA at room temperature overnight; ubiquitin (N, cleaved yes); made in house; host or cells: E. coli
Briefly: Fluorometric MCA-peptide hydrolysis assay, collagenase-3 (Coll3). It counts as biochemical. The settings on record: apparent Ki; 10 μM MCA peptide substrate, 37° C., pH 7.5; read-out: Coll3 (Ki,app).

Data set [2] addresses T2, catalytic domain of human stromelysin (Hsln) (Homo sapiens, UniProt P08254).
T2 construct: The catalytic domain of human stromelysin (Hsln) was obtained by expression and purification of a C-terminally truncated prostromelysin-1; made in house; host or cells: E. coli BL21
Briefly: Fluorometric MCA-peptide hydrolysis assay, stromelysin (Hsln). It counts as biochemical. The settings on record: apparent Ki; 10 μM MCA peptide substrate, 37° C., pH 7.5; read-out: Hsln (Ki,app). The method in brief:
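APMA-activated E. coli–expressed catalytic domain, with 10 μM MCA-Pro-Leu-Gly-Leu-DPA-Ala-Arg-NH2 at 37 °C. Buffer was pH 7.5 Tricine with NaCl, CaCl2, zinc acetate and 2% final DMSO; fluorescence read at ex 328/em 393 nm over 60 min. Ki,app from steady-state rates fitted to competitive or Morrison tight-binding equations.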

The target in data set [3] is T3, fibroblast collagenase-1 catalytic domain (HFC) (Homo sapiens, UniProt P03956).
T3 construct: The catalytic domain of human collagenase-1 was expressed as a fusion protein with ubiquitin in E. coli; ubiquitin (cleaved yes); made in house; host or cells: E. coli
T3 sequence (P03956 100-269 limits assumed): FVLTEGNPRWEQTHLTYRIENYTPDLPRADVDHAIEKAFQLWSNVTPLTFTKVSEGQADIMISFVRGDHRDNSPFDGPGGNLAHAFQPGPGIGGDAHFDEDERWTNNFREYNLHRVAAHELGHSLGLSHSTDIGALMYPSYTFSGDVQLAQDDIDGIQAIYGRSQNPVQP
Briefly: Fluorometric MCA-peptide hydrolysis assay, fibroblast collagenase-1 (HFC). It counts as biochemical. The settings on record: apparent Ki; 10 μM MCA peptide substrate, 37° C., pH 7.5; read-out: HFC (Ki,app). As for the experimental part: The catalytic domain of human collagenase-1 was expressed as a fusion protein with ubiquitin in E. coli (see Gehring, E. R., J Biol. Chem., 1995, 270, 22507). After purification of the fusion protein, the fibroblast collagenase-1 catalytic domain (HFC) was released either by treatment with purified, active stromelysin-1 (1:50 w/w ratio), which generated nearly 100% N-terminal Phe1, or by autoprocessing the concentrated collagenase-1 fusion and then incubating at 37° C. for 1 hour. Final purification was completed using zinc chelate chromatography.
Assays were performed in assay buffer (50 mM Tricine pH 7.5, 200 mM sodium chloride, 10 mM calcium chloride, 0.5 mM zinc acetate containing 2% dimethyl sulfoxide (DMSO)) once the substrate and inhibitor were diluted into it. Stock solutions of inhibitors were prepared in 100% DMSO. Stock solutions of the substrate were prepared in 100% DMSO at a concentration of 6 mM.
The assay method was based on the hydrolysis of MCA-Pro-Leu-Gly-Leu-DPA-Ala-Arg-NH2 (American Peptide Co.) at 37° C. (see Knight, C. G. et al., FEBS, 1992, 296, 263-266). The fluorescence changes were monitored with a Perkin-Elmer LS-50B fluorimeter using an excitation wavelength of 328 nm and an emission wavelength of 393 nm. The substrate concentration used in the assays was 10 μM. The inhibitor was diluted into the assays from a solution in 100% DMSO, and controls substituted an equal volume of DMSO so that the final DMSO concentration from inhibitor and substrate dilution in all assays was 2%. […] Proper determination of steady-state rates of substrate cleavage required assay lengths of 60 minutes to allow for complete equilibration of the enzyme-inhibitor complex.
The Km for the MCA peptide substrate with the matrix metalloproteinases is quite high and exceeds its solubility under assay conditions. Consequently, the apparent Ki (Ki,app) was determined to describe the strength of inhibition. However, in this case, Ki,app would be essentially equal to Ki since [S]<<Km. For the determination of Ki,app, the concentration of the inhibitor was varied at a constant and low concentration of substrate and the steady-state rates of fluorescence change determined. In most cases absorptive quench due to the presence of ligand was not observed. For slow-binding inhibitors, onset of inhibition curves were collected for at least 45 minutes so that equilibrium was established. Steady-state rates of fluorescence change were obtained by fitting a curve to an equation for a single exponential decay containing a linear phase. The fitted value of the linear phase was taken as the steady-state rate. The steady-state rates were fitted to the Michaelis equation describing competitive inhibition by non-linear methods. Data resulting from tight-binding inhibition was analyzed, and Ki,app determined by fitting the data to the tight-binding equation of Morrison (Biochem. Biophys. Acta, vol. 185, pp. 269-286 (1969)) by non-linear methods.

The target of data set [4] is T4, human progelatinase A (GelA), catalytic and fibronectin-like portion (Homo sapiens, UniProt P08253).
T4 construct: The catalytic and fibronectin-like portion of human progelatinase A (GelA) was expressed as a fusion protein with ubiquitin; ubiquitin; made in house; host or cells: E. coli
T4 sequence (P08253 110-465 limits assumed): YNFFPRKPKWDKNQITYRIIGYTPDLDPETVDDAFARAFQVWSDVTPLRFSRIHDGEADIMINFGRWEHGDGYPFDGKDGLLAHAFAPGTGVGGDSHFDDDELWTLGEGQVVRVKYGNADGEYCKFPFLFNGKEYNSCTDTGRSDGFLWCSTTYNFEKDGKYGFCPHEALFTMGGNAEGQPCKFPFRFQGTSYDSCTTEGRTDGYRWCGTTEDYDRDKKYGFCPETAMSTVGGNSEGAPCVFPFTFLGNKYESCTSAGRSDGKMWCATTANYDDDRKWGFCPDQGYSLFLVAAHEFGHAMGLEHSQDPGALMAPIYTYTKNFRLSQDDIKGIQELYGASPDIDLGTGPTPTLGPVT
Briefly: Fluorometric MCA-peptide hydrolysis assay, gelatinase A (GelA). It counts as biochemical. The settings on record: apparent Ki; 10 μM MCA peptide substrate, 37° C., pH 7.5. The method, boiled down: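 E. coli-expressed ubiquitin fusion of human proGelA catalytic plus fibronectin-like domains, autoactivated; 10 μM MCA-Pro-Leu-Gly-Leu-DPA-Ala-Arg-NH2, pH 7.5 Tricine/NaCl/CaCl2/Zn buffer, 2% DMSO, 37° C, 60 min. Fluorescence 328/393 nm; steady-state rates fitted to competitive inhibition or Morrison tight-binding equation giving Ki,app (≈Ki since [S]<<Km).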

Data set [5] has as its target T5, Human matrilysin (Matr) (Homo sapiens, UniProt P09237).
T5 construct: the catalytic domain was liberated by treatment with 2 mM APMA at 37° C. for 2 hours; ubiquitin (cleaved yes); made in house; host or cells: E. coli
T5 sequence (P09237 95-267): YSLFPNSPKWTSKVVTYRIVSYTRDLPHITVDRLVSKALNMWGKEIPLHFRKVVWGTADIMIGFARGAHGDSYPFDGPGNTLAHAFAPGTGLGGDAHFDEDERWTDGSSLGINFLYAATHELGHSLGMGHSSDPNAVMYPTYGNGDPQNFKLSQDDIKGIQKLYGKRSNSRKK
The data set can be described thus: Fluorometric MCA-peptide hydrolysis assay, matrilysin (Matr). As to conditions: apparent Ki; 10 μM MCA peptide substrate, 37° C., pH 7.5; read-out: Matr (Ki,app). It counts as biochemical. The method, boiled down: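 Catalytic domain of E. coli-expressed human matrilysin assayed at 37° C, pH 7.5 Tricine buffer, 2% DMSO, with 10 μM MCA-Pro-Leu-Gly-Leu-DPA-Ala-Arg-NH2; fluorescence ex 328/em 393 nm over 60 min. Ki,app from steady-state rates fitted to competitive inhibition or Morrison tight-binding equation.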

T2 sequence (P08254 100-272 limits assumed): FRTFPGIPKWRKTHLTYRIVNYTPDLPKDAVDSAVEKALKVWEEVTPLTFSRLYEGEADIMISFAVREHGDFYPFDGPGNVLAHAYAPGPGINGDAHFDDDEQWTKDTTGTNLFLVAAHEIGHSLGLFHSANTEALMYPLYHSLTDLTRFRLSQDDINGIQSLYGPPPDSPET

Turning to `CNC(=O)[C@@H](NC(=O)C(CC(=O)O)n1cnc(-c2ccc(-c3ccccc3)cc2)c1)C(C)(C)C` (mixture of isomers) [Example 18(c)], the melting point fell in the range of 187 to 188.2 °C. Besides, the Ki in data set [1] amounted to 31 nM. Further, in data set [2], the Ki came out at 180 nM. In data set [3], the Ki was found to be 24000 nM.
Turning to `CNC(=O)[C@@H](NC(=O)[C@@H](CC(=O)O)n1ccc(-c2ccncc2)c1)C(C)(C)C` [Example 1(d), N-[2,2-Dimethyl-1(S)-(methylcarbamoyl)propyl]-3(R)-[3-(pyridin-4-yl)-1H-pyrrol-1-yl]succinamic Acid], the melting point was in the range of 145 to 148 °C. Moreover, the GelA (Ki,app) in data set [4] was 3.9 nM. In addition, the Ki in data set [1] was found to be 24 nM. The Ki in data set [2] came out at 1220 nM. Moreover, the Ki in data set [3] stood at 4500 nM.
`CCOC(=O)c1ccc(NC(=O)[C@H](CC(C)C)NC(=O)[C@@H](CC(=O)O)n2cccc2)cc1` [Example 1(n), 4-[2S-(3-Carboxy-2(R)-1H-pyrrol-1-yl-propionylamido)-4-methyl-pentanoylamino]benzoic Acid Ethyl Ester] had a melting point of 111 to 114 °C. Further, the Ki in data set [1] turned out to be 8500 nM. Further, the Ki in data set [2] was found to be 2000 nM. The Ki in data set [3] is 1900 nM. For the same molecule, the Ki in data set [5] was > 10000 nM.
Take `O=C(O)C[C@H](C(=O)N[C@H]1Cc2cn(c3ccccc23)CCCCCCNC1=O)n1cccc1` [Example 1(o), N-(9-oxo-1,8-Diaza-tricyclo[10.6.1.0^13,18]nonadeca-12(19), 13,15,17-tetraen-10S-yl)-3(R)-1H-pyrrol-1-yl-succinamic Acid]: the melting point is 139 to 144 °C. The Ki in data set [2] was > 10000 nM. The Ki in data set [3] was 51500 nM. In addition, in data set [5], the Ki came to 15000 nM.
With `O=C(O)C[C@H](C(=O)N[C@H]1Cc2cn(c3ccccc23)CCOCCNC1=O)n1ccc(-c2ccc(-c3ccncc3)cc2)c1` [Example 7(a), N-(8-Oxo-4-oxa-1,7-diazatricyclo[9.6.1.0^12,17]octadeca-11(18),12,14,16-tetraen-9(S)-yl)-3(R)-[3-[4-(pyridin-4-yl)phenyl]-1H-pyrrol-1-yl]succinamic Acid], the melting point is > 172 °C (dec.). In data set [4], the GelA (Ki,app) was found to be 0.015 nM. For the same molecule, the Ki in data set [1] was 0.013 nM. Moreover, the Ki in data set [2] worked out at 2 nM. The Ki in data set [3] came out at 333 nM. Further, the Ki in data set [5] is 640 nM.
`O=C(O)C[C@H](C(=O)N[C@H](CO)Cc1ccccc1)c1ccn(-c2ccc(-c3ccccc3)cc2)c1` [Example 13] came in with a melting point of 151 to 154 °C. Moreover, the GelA (Ki,app) in data set [4] came out at 1.7 nM. The Ki in data set [1] was 21 nM. The Ki in data set [2] is 35 nM. In addition, the Ki in data set [3] amounted to 72000 nM. Further, the Ki in data set [5] was determined as 16900 nM.
Regarding `COC(=O)c1ccc(NC(=O)[C@H](CC(C)C)NC(=O)[C@@H](CC(=O)O)c2cccs2)cc1` [Example 17(a), 4-[2(S)-(2(R)-Carboxymethyl-2-(thien-2-yl)acetylamino]-4-methyl-valeroyl]-aminobenzoic Acid Methyl Ester], the melting point lay within 197 to 200 °C. For the same molecule, the Ki in data set [2] amounted to 965 nM. Further, the Ki in data set [3] is 32000 nM. Moreover, the Ki in data set [5] was found to be 454 nM.
Regarding `COC(=O)c1ccc(NC(=O)[C@H](CC(C)C)NC(=O)[C@@H](CC(=O)O)c2ccsc2)cc1` [Example 17(b), 4-[2(S)-[2(R)-Carboxymethyl-2-(thien-3-yl)acetylamino]-4-methyl-valeroyl]-aminobenzoic Acid Methyl Ester], the melting point is 199 to 201 °C. The Ki in data set [2] came out at 720 nM. Moreover, the Ki in data set [3] amounted to 20000 nM. Besides, the Ki in data set [5] was determined as 309 nM.
`CC(C)(C)[C@@H](CO)NC(=O)[C@@H](CC(=O)NO)n1cnc(-c2ccc(-c3ccccc3)cc2)c1` [Example 19(c), 3(R)-(3-Biphenyl-4-yl-1H-imidazol-1-yl)-N^4-(2,2-dimethyl-1(S)-hydroxymethylpropyl)-N^1-hydroxy-succindiamide] displayed a melting point of 157.5 to 160 °C. For the same molecule, the Ki in data set [1] was 6.5 nM. Also, in data set [2], the Ki worked out at 17 nM. For the same molecule, the Ki in data set [3] came out at 45000 nM.
Molecule `CC(C)(C)[C@@H](CO)NC(=O)[C@H](CC(=O)NO)n1cnc(-c2ccc(-c3ccccc3)cc2)c1` [Example 19(d), 3(S)-(3-Biphenyl-4-yl-1H-imidazol-1-yl)-N^4-(2,2-dimethyl-1(S)-hydroxymethylpropyl)-N^1-hydroxy-succindiamide] yielded a melting point of 134.5 to 136.5 °C. Further, the Ki in data set [1] is 43 nM. In data set [2], the Ki came out at 120 nM. In addition, in data set [3], the Ki is > 100000 nM.

The record behind these values is patent publication US6495699B2, “Metalloproteinase inhibitors, pharmaceutical compositions containing them, and their use” (Agouron Pharmaceuticals Inc., priority 1996, dated 2002).
